Reference: patent publication US8853219B2, “Compounds and compositions for cognition-enhancement, methods of making, and methods of treating” (NeuroSolis, Inc., priority 2010, dated 2014)
Like-named read-outs stand apart in the source and are kept apart here.

Tests used:
[1] = tested on: pooled male human liver microsomes; experiment: Metabolism by human liver microsomes; assay type: in vitro ADME; settings: for Metabolism in human liver microsomes: 6 hours incubation; for Rate of metabolism, S- versus R-enantiomer: human liver microsomes, as also in rat liver microsomes and FMO Supersomes
Experimental: Compounds were incubated with pooled male human liver microsomes (BD Biosciences, #452172) and an NADP-regenerating system in a phosphate buffer (pH 7.4) for a total of 6 hours. Aliquots were removed every 2 hours, and 1% formic acid was added to halt the reaction. Samples were centrifuged, filtered through 0.2 micron spinfilter and the amount of each compound in the supernatants was quantitated using LC/MS/MS.

[2] = biological target: T1, human muscarinic M1 receptors (Homo sapiens, UniProt P11229); experiment: Stimulation of inositol phosphate production in A9L cells, human M1 (IPOne TR-FRET); assay type: cell-based; settings: for huM1/A9L Smax: percentage of maximal stimulation by carbachol
T1 construct: host or cells: A9L cells
T1 sequence (P11229 1-460): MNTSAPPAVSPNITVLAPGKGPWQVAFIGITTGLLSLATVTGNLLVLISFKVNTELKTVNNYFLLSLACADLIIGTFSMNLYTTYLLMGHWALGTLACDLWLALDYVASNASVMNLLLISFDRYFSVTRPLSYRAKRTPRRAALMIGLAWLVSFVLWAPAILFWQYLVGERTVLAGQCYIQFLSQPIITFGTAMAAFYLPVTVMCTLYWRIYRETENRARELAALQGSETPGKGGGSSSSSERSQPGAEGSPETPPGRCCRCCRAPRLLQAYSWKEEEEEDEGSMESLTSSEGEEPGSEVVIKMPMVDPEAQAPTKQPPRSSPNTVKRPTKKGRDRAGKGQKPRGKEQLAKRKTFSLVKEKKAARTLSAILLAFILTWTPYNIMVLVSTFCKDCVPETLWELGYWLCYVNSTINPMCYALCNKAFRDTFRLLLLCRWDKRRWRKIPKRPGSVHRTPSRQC
Experimental: (§1) Muscarinic M1 and M3 agonist activity was evaluated by measuring the stimulation of inositol phosphate (IP) production in the presence of lithium chloride from A9L cells transfected with expression plasmids containing human muscarinic M1 and M3 receptors, respectively. The cell lines were a gift from Professor W Messer, and the methods were as described in Tejada F R et al. J. Med. Chem. 2006; 49: 7518-31 except that the assay was scaled down to run in 384 well plates, and IP was measured in the cell lysates using the non-isotopic IPOne TR-FRET assay (CIS-BIO, Inc).
(§2) Cells were grown to 90% confluence in 384 well hi-base plates (Greiner Bio-One), compounds were added at suitable concentrations in growth medium containing 10 mM LiCL, buffered with an extra 10 mM HEPES (pH7.4), and incubated for 60 minutes at 37° C. Cells were lysed and assayed for IP following the manufacturer's instructions.
(§3) The value for a full agonist is 100%, while partial agonists give values below 100%.

[3] = biological target: T2, human muscarinic M3 receptors (Homo sapiens, UniProt P20309); experiment: Stimulation of inositol phosphate production in A9L cells, human M3 (IPOne TR-FRET); assay type: cell-based; settings: for huM3/A9L Smax: percentage of maximal stimulation by carbachol
T2 construct: host or cells: A9L cells
T2 sequence (P20309 whole entry): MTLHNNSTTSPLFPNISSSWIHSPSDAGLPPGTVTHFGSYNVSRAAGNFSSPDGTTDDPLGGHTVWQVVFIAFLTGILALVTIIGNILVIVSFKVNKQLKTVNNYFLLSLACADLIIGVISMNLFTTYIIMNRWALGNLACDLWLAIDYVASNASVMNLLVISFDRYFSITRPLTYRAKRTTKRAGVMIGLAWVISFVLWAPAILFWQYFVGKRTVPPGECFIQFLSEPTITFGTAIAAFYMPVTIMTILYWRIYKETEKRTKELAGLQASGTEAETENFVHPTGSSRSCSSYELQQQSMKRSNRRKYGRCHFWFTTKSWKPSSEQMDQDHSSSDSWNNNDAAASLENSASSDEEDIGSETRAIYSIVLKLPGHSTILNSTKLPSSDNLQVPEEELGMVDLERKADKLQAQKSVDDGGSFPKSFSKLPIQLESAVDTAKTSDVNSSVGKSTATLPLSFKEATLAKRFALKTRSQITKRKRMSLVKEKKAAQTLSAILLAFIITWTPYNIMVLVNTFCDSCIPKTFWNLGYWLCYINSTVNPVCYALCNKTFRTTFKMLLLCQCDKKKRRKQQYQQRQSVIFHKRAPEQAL
Experimental: as §1, §2, §3

## [2H]C([2H])([2H])c1noc([C@@H]2CCCNC2)n1 [Compound 7b, R-(−)-3-D3-methyl-5-(piperidin-3-yl)-1,2,4-oxadiazole]
[1]
  Metabolism in human liver microsomes: metabolized significantly less in human liver microsomes than in rat liver microsomes
[2]
  huM1/A9L ED50 relative to CCh: + (key: ++: potency > 10x CCh; +: potency 2-10x CCh; +/−: potency 0.5-2x CCh; −: potency < 0.5-0.1x CCh; −−: potency < 0.1x CCh; inactive: potency too low to determine)
[3]
  huM3/A9L ED50 relative to CCh: +/− (key: ++: potency > 10x CCh; +: potency 2-10x CCh; +/−: potency 0.5-2x CCh; −: potency < 0.5-0.1x CCh; −−: potency < 0.1x CCh; inactive: potency too low to determine)

## Cc1noc([C@@H]2CCCNC2)n1 [Compound 3b, R-(−)-3-methyl-5-(piperidin-3-yl)-1,2,4-oxadiazole]
[1]
  Metabolism in human liver microsomes: metabolized significantly less in human liver microsomes than in rat liver microsomes
[2]
  huM1/A9L ED50 relative to CCh: +/− (key: ++: potency > 10x CCh; +: potency 2-10x CCh; +/−: potency 0.5-2x CCh; −: potency < 0.5-0.1x CCh; −−: potency < 0.1x CCh; inactive: potency too low to determine)
[3]
  huM3/A9L ED50 relative to CCh: − (key: ++: potency > 10x CCh; +: potency 2-10x CCh; +/−: potency 0.5-2x CCh; −: potency < 0.5-0.1x CCh; −−: potency < 0.1x CCh; inactive: potency too low to determine)

## Cc1noc(C2CCNC2)n1 (stereo not drawn) [Compound 31, 3-methyl-5-(pyrrolidin-3-yl)-1,2,4-oxadiazole]
[3]; potency class relative to carbachol
  huM3/A9L ED50 relative to CCh: − (potency < 0.5-0.1x CCh)

## Cc1noc([C@H]2CCCN[C@@H]2C)n1 [Compound 21]
[2]
  huM1/A9L Smax: 18%
[3]
  huM3/A9L Smax: 14%

## c1nsc(C2CCCNC2)n1 (stereo not drawn) [Compound 12b, 5-(piperidin-3-yl)-1,2,4-thiadiazole]
[2]
  huM1/A9L ED50 relative to CCh: − (key: ++: potency > 10x CCh; +: potency 2-10x CCh; +/−: potency 0.5-2x CCh; −: potency < 0.5-0.1x CCh; −−: potency < 0.1x CCh; inactive: potency too low to determine)
[3]
  huM3/A9L ED50 relative to CCh: −− (key: ++: potency > 10x CCh; +: potency 2-10x CCh; +/−: potency 0.5-2x CCh; −: potency < 0.5-0.1x CCh; −−: potency < 0.1x CCh; inactive: potency too low to determine)

## Cc1noc([C@H]2CCCN[C@@H]2C)n1 [Compound 22]
[2]
  huM1/A9L Smax: 7%
[3]
  huM3/A9L Smax: 15%

## Cc1noc([C@H]2CCCNC2)n1 [Compound 3a, S-(+)-3-methyl-5-(piperidin-3-yl)-1,2,4-oxadiazole]
[1]
  Metabolism in human liver microsomes: metabolized significantly less in human liver microsomes than in rat liver microsomes
  Rate of metabolism, S- versus R-enantiomer: metabolized faster than the R-enantiomers
[2]
  huM1/A9L ED50 relative to CCh: + (key: ++: potency > 10x CCh; +: potency 2-10x CCh; +/−: potency 0.5-2x CCh; −: potency < 0.5-0.1x CCh; −−: potency < 0.1x CCh; inactive: potency too low to determine)
[3]
  huM3/A9L ED50 relative to CCh: +/− (key: ++: potency > 10x CCh; +: potency 2-10x CCh; +/−: potency 0.5-2x CCh; −: potency < 0.5-0.1x CCh; −−: potency < 0.1x CCh; inactive: potency too low to determine)

## Cc1noc([C@H]2CCCN[C@@H]2C)n1 [Compound 19]
[2]
  huM1/A9L Smax: 15%
[3]
  huM3/A9L Smax: 34%

## Cc1nsc(C2CCCNC2)n1.Cl (stereo not drawn) [Compound 12a, 3-methyl-5-(piperidin-3-yl)-1,2,4-thiadiazole hydrochloride]
[2]
  huM1/A9L ED50 relative to CCh: + (key: ++: potency > 10x CCh; +: potency 2-10x CCh; +/−: potency 0.5-2x CCh; −: potency < 0.5-0.1x CCh; −−: potency < 0.1x CCh; inactive: potency too low to determine)
[3]
  huM3/A9L ED50 relative to CCh: + (key: ++: potency > 10x CCh; +: potency 2-10x CCh; +/−: potency 0.5-2x CCh; −: potency < 0.5-0.1x CCh; −−: potency < 0.1x CCh; inactive: potency too low to determine)

## Cc1noc([C@H]2CCCN[C@@H]2C)n1 [Compound 24]
[2]
  huM1/A9L ED50 relative to CCh: −− (key: ++: potency > 10x CCh; +: potency 2-10x CCh; +/−: potency 0.5-2x CCh; −: potency < 0.5-0.1x CCh; −−: potency < 0.1x CCh; inactive: potency too low to determine)
  huM1/A9L Smax: 41%
[3]
  huM3/A9L Smax: 32%

## Cc1noc([C@H]2CCCN[C@@H]2C)n1 [Compound 23]
[2]
  huM1/A9L Smax: 23%
[3]
  huM3/A9L Smax: 19%

## Nc1noc(C2CCCNC2)n1 (stereo not drawn) [Compound 27, 3-Amino-5-(piperidin-3-yl)-1,2,4-oxadiazole]
[2]
  huM1/A9L ED50 relative to CCh: + (key: ++: potency > 10x CCh; +: potency 2-10x CCh; +/−: potency 0.5-2x CCh; −: potency < 0.5-0.1x CCh; −−: potency < 0.1x CCh; inactive: potency too low to determine)
[3]
  huM3/A9L ED50 relative to CCh: +/− (key: ++: potency > 10x CCh; +: potency 2-10x CCh; +/−: potency 0.5-2x CCh; −: potency < 0.5-0.1x CCh; −−: potency < 0.1x CCh; inactive: potency too low to determine)

## Cc1noc([C@H]2CCCN[C@@H]2C)n1 [Compound 20]
[2]
  huM1/A9L Smax: 9%

## [2H]C([2H])([2H])c1noc([C@H]2CCCNC2)n1 [Compound 7a, S-(+)-3-D3-methyl-5-(piperidin-3-yl)-1,2,4-oxadiazole]
[1]
  Metabolism in human liver microsomes: metabolized significantly less in human liver microsomes than in rat liver microsomes
  Rate of metabolism, S- versus R-enantiomer: metabolized faster than the R-enantiomers
[2]
  huM1/A9L ED50 relative to CCh: +/− (key: ++: potency > 10x CCh; +: potency 2-10x CCh; +/−: potency 0.5-2x CCh; −: potency < 0.5-0.1x CCh; −−: potency < 0.1x CCh; inactive: potency too low to determine)
[3]
  huM3/A9L ED50 relative to CCh: −− (key: ++: potency > 10x CCh; +: potency 2-10x CCh; +/−: potency 0.5-2x CCh; −: potency < 0.5-0.1x CCh; −−: potency < 0.1x CCh; inactive: potency too low to determine)
